The text below walks through data of paper PMC9223267, “Serine hydroxymethyltransferase as a potential target of antibacterial agents acting synergistically with one-carbon metabolism-related inhibitors” (Communications Biology, 2022).

Read-outs that look alike come from different tables or passages of the source.

Test [1] deals with E. faecium. The experiment in a line: Antibacterial activity evaluation (turbidity, OD600). Particulars: Enterococcus faecium. Format: cell-based, Enterococcus faecium (JCM5804). As to the method: (§1) E. faecium and E. faecalis were diluted to turbidity equivalents that matched 1.0 McFarland (McF) standard in distilled water (S. aureus and E. coli were also diluted to 0.5 McF), and additionally diluted 1:200 in Mueller–Hinton (MH) broth. The designated concentrations of the tested compounds were prepared by ten-fold serial dilutions directly in 96-well microtiter plates (IWAKI, Shizuoka, Japan), as previously described. […] The other compounds were serially diluted from 20 μM downwards (final concentration, 10 μM). […] Positive control wells included bacteria without any compound, and the negative control wells only contained MH broth. […] The optical density at 600 nm (OD600) was measured using a GloMax microtiter plate reader (Promega, WI, USA), and the EC50 values of each test compound and standard error were calculated by Microsoft Excel function, AVERAGE and STDEV/SQRT.

Test [2] concerns E. faecalis. Described as above. Format: cell-based, Enterococcus faecalis (JCM7783). The following applies: Enterococcus faecalis, E. faecalis JCM7783. As to the method:
as §1

The test system of test [3] is S. aureus. The test is described as above. Format: cell-based, Staphylococcus aureus (ATCC29213). The following applies: Staphylococcus aureus, S. aureus ATCC29213. As to the method: as §1
For test [4], the system named is E. coli. Described as above. Format: cell-based, Escherichia coli (ATCC25922). Particulars: Escherichia coli, E. coli ATCC25922. The method, then: as §1
Test [5] has as its system E. faecium. As to the kind of experiment: Antibacterial assay with an excess concentration of biomolecules (Ser, Gly, inosine, dT, FA). Type of test: cell-based, Enterococcus faecium (JCM5804). Particulars: Enterococcus faecium. As to the method: as §1
The ratio of the control EC50 (no competitors added) to the experimental EC50 (competitors added) was calculated for each test substance.

Test [6] has as its system efmSHMT. Format: binding, Enterococcus faecium. The following applies: DSF; final drug concentration 50 μM. The method, then:
Protein samples were prepared as 20 μL aliquots containing 0.1 mg/mL protein (efmSHMT/ecSHMT), 1 μL of the ligand in DMSO (final drug concentration, 50 μM) and 2% or 4% SYPRO Orange (Invitrogen, MA, USA). […] Melting points were evaluated as the half-point of the maximum intensity of each curve.

In test [7] the target is efmSHMT (Enterococcus faecium, UniProt I3U4H4, M1V). As to the kind of experiment: biochemical. Type of test: binding. The following applies: 5 μM efmSHMT, 10 mM Gly and 100 μM Ser. The method, then: After adding Me-THF, the efmSHMT solution was incubated for 30 min at room temperature. The optical density at 500 and 600 nm (OD500 and OD600) were then measured using a nanodrop spectrophotometer[24],[25]. OD600 was used as the background. After detection, each concentration of inhibitor was added to the efmSHMT solution and incubated for 30 min at room temperature. OD500 and OD600 were measured. The relative OD500 intensity was calculated as relative OD500 = (OD500 – OD600)/(MAXOD500 – OD600), where MAXOD500 is the average OD500 value in the presence of 1000, 2000 and 4000 μM Me-THF without inhibitors. […] Here, IC50 is the concentration of inhibitor added to the efmSHMT solution and [Me-THF] is the EC50 in the presence of the inhibitor concentration. [EC50 without inhibitor] is the EC50 of Me-THF in the absence of the inhibitor.
Sequence of efmSHMT (Enterococcus faecium, UniProt I3U4H4, M1V) (I3U4H4 whole entry M1V): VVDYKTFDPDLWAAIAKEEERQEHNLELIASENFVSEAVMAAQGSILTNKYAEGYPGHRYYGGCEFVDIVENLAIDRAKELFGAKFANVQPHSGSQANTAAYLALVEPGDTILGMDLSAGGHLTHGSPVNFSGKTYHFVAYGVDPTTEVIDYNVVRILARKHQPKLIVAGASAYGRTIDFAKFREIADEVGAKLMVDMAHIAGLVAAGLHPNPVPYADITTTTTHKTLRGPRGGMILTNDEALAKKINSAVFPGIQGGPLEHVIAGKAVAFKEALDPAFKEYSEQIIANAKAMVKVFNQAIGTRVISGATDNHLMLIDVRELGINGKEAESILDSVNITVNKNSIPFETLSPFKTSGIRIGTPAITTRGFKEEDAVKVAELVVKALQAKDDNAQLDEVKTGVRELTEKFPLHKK

In test [8] the test system is E. faecium. As to the kind of experiment: Bacterial viability assay (Microbial Viability Assay Kit-WST, OD450). Format: cell-based, Enterococcus faecium. As to the method: Living E. faecium were determined using the Microbial Viability Assay Kit-WST (DOJINDO, Tokyo, Japan). […] Positive control wells included bacteria seeded into MH broth without compounds, and the negative control wells contained MH broth only. […] Five microlitres of the colouring reagent were added to each well of the 96-well plate every 2 h after starting incubation with each compound.

[9] abbreviates: read-out: pEC50 ± S.E. (converted).
Where [10] appears, read: JCM5804, E. faecium JCM5804, 1 mM Inosine, read-out: EC50.
Setting [11] is: JCM5804, E. faecium JCM5804, 1 mM Inosine, read-out: pEC50 ± S.E. (converted).
The mark [12] stands for this setting: JCM5804, E. faecium JCM5804, 1 mM deoxythymidine, read-out: EC50.
Where [13] appears, read: JCM5804, E. faecium JCM5804, 1 mM deoxythymidine, read-out: pEC50 ± S.E. (converted).
The mark [14] stands for this setting: JCM5804, E. faecium JCM5804, 10 mM Glycine, read-out: EC50.
The mark [15] stands for this setting: JCM5804, E. faecium JCM5804, 10 mM Glycine, read-out: pEC50 ± S.E. (converted).
The mark [16] stands for this setting: JCM5804, E. faecium JCM5804, 100 mM Serine, read-out: EC50.
Where [17] appears, read: JCM5804, E. faecium JCM5804, 100 mM Serine, read-out: pEC50 ± S.E. (converted).
[18] abbreviates: JCM5804, E. faecium JCM5804, 0.1 M folate, read-out: EC50.
[19] abbreviates: JCM5804, E. faecium JCM5804, 0.1 M folate, read-out: pEC50 ± S.E. (converted).
Setting [20] is: E. faecium JCM5804, read-out: EC50.
Setting [21] is: E. faecium JCM5804, read-out: pEC50 ± S.E. (converted).

A word on the Ki: it is the dissociation constant of the complex between target and ligand, obtained from inhibition or displacement. A lower Ki goes with higher affinity. For `Nc1nc2[nH]cc(CCc3ccc(C(=O)N[C@@H](CCC(=O)O)C(=O)O)cc3)c2c(=O)[nH]1` [PMX, pemetrexed], the EC50 in test [1] (JCM5804, E. faecium JCM5804, read-out: EC50) was 0.052 nM; in test [1] (JCM5804, E. faecium JCM5804, read-out: pEC50 ± S.E. (converted)), 0.0501 nM; in test [2] (read-out: EC50), above 100000 nM; in test [2] (setting [9]) it was above 100000 nM; in test [3] (read-out: EC50), above 100000 nM; in test [3] (setting [9]), above 100000 nM. The EC50 in test [4] (read-out: EC50) was above 100000 nM; in test [4] (setting [9]), above 100000 nM; in test [5] (setting [10]) it was 0.074 nM; in test [5] (setting [11]), 0.0794 nM; in test [5] (setting [12]), above 100000 nM; in test [5] (setting [13]), above 100000 nM. Moreover, the EC50 in test [5] (setting [14]) was 0.062 nM; in test [5] (setting [15]), 0.0631 nM; in test [5] (setting [16]) it was 0.25 nM; in test [5] (setting [17]), 0.251 nM; in test [5] (setting [18]), 1800 nM; in test [5] (setting [19]), 2000 nM. Further, the “ΔTm (thermal stability of efmSHMT)” value in test [6] came out at 0.9 °C. Further, the Ki in test [7] (Ki, Cheng-Prusoff) was 117000 nM; in test [7] (pKi ± pSE), 126000 nM.

For `O=c1[nH]c(=O)n([C@H]2C[C@H](O)[C@@H](CO)O2)cc1F` [5-FdU, 5-fluoro-2′-deoxyuridine], the EC50 was 29 nM in test [1] (setting [20]); 31.6 nM in test [1] (setting [21]); 310 nM in test [2] (read-out: EC50); 316 nM in test [2] (setting [9]); 8.9 nM in test [3] (read-out: EC50); 7.94 nM in test [3] (setting [9]). Moreover, the EC50 was 10000 nM in test [4] (read-out: EC50); 10000 nM in test [4] (setting [9]); 24 nM in test [5] (setting [10]); 25.1 nM in test [5] (setting [11]); above 100000 nM in test [5] (setting [12]); above 100000 nM in test [5] (setting [13]). Also, the EC50 is 6.4 nM in test [5] (setting [14]); 6.31 nM in test [5] (setting [15]); 32 nM in test [5] (setting [16]); 31.6 nM in test [5] (setting [17]); 190 nM in test [5] (setting [18]); 200 nM in test [5] (setting [19]).

Turning to `O=c1[nH]c(=O)n([C@@H]2O[C@H](CO)[C@@H](O)[C@H]2O)cc1F` [5-FUrd, 5-fluorouridine], the EC50 is 73 nM in test [1] (setting [20]); 79.4 nM in test [1] (setting [21]); 380 nM in test [2] (read-out: EC50); 398 nM in test [2] (setting [9]); 30 nM in test [3] (read-out: EC50); 31.6 nM in test [3] (setting [9]). The EC50 in test [4] (read-out: EC50) was 10000 nM; in test [4] (setting [9]), 10000 nM; in test [5] (setting [10]), 720 nM; in test [5] (setting [11]) it was 794 nM; in test [5] (setting [12]) it was 21000 nM; in test [5] (setting [13]) it was 20000 nM. Also, the EC50 in test [5] (setting [14]) is 65 nM; in test [5] (setting [15]), 79.4 nM; in test [5] (setting [16]), 98 nM; in test [5] (setting [17]) it was 100 nM; in test [5] (setting [18]), 270 nM; in test [5] (setting [19]), 251 nM.

Take `Cc1nc2ccc(CN(C)c3ccc(C(=O)N[C@@H](CCC(=O)O)C(=O)O)s3)cc2c(=O)[nH]1` [RTX, raltitrexed]: the EC50 in test [1] (setting [20]) is 13 nM; in test [1] (setting [21]) it was 12.6 nM; in test [2] (read-out: EC50) it was above 100000 nM; in test [2] (setting [9]) it was above 100000 nM; in test [3] (read-out: EC50), above 100000 nM; in test [3] (setting [9]), above 100000 nM. The EC50 is above 100000 nM in test [4] (read-out: EC50); above 100000 nM in test [4] (setting [9]); 8.2 nM in test [5] (setting [10]); 7.94 nM in test [5] (setting [11]); above 100000 nM in test [5] (setting [12]); above 100000 nM in test [5] (setting [13]). The EC50 in test [5] (setting [14]) is 10 nM; in test [5] (setting [15]), 10 nM; in test [5] (setting [16]) it was 14 nM; in test [5] (setting [17]), 12.6 nM; in test [5] (setting [18]), above 100000 nM; in test [5] (setting [19]), above 100000 nM.

Take `CN[C@H](CC(C)C)C(=O)N[C@H]1C(=O)N[C@@H](CC(N)=O)C(=O)N[C@H]2C(=O)N[C@H]3C(=O)N[C@H](C(=O)N[C@H](C(=O)O)c4cc(O)cc(O)c4-c4cc3ccc4O)[C@H](O)c3ccc(c(Cl)c3)Oc3cc2cc(c3O[C@@H]2O[C@H](CO)[C@@H](O)[C@H](O)[C@H]2O[C@H]2C[C@](C)(N)[C@H](O)[C@H](C)O2)Oc2ccc(cc2Cl)[C@H]1O` [VCM, vancomycin]: the EC50 in test [1] (VCM in μg/mL, E. faecium JCM5804, read-out: EC50) is 0.31 µg/mL; in test [2] (VCM in μg/mL, read-out: EC50), 3.2 µg/mL; in test [3] (VCM in μg/mL, read-out: EC50), 0.36 µg/mL; in test [4] (VCM in μg/mL, read-out: EC50) it was above 100 µg/mL; in test [5], 0.29 µg/mL; in test [5] (VCM in μg/mL, 1 mM Inosine, read-out: EC50) it was 0.34 µg/mL. In addition, the EC50 in test [5] (VCM in μg/mL, 1 mM deoxythymidine, read-out: EC50) amounted to 0.42 µg/mL; in test [5] (VCM in μg/mL, 100 mM Serine, read-out: EC50), 0.3 µg/mL; in test [5] (VCM in μg/mL, 0.1 M folate, read-out: EC50), 0.31 µg/mL.

Take `NCC(=O)O` [glycine]: the Relative bacterial viability is ~ 0.75 in test [8] (50 mM glycine (Supplementary Fig. S2)) and around 0.40 in test [8] (100 mM glycine (Supplementary Fig. S2)).
